Test results from publication PMC11818921, “Biological Activities of Constituents from Rosa roxburghii and Their Mechanisms Based on Network Pharmacology and Biological Verification” (International Journal of Molecular Sciences, 2025).
Entries after “also recorded” stand apart in the source; their conditions may differ. Blank lines part the entries; values can stand above or below the compound they belong to.

Tests used:
α-glucosidase = α-glucosidase (Saccharomyces cerevisiae, UniProt P53341); assay: α-Glucosidase inhibition assay (pNPG); assay type: biochemical; conditions: at a concentration of 200 μM; for inhibition at 200 µM: read-out: α-glucosidase inhibition rate
Procedure: For this assay, 20 μL of each sample, 20 μL of α-glucosidase solution (0.6 U/mL), and PBS solution (20 μL) were mixed, added to a 96-well plate, and incubated at 37 °C for 10 min, and then, pNPG solution (20 μL) was added and incubation continued for 30 min. At the end of incubation, the reaction was terminated with the addition of 80 μL of NaCO3 (0.2 M). The release of p-nitrophenol was measured by placing the 96-well plate at 405 nm on an enzyme meter (positive control: acarbose). The test was repeated three times for all samples.Inhibition (%) = (1 − A405 sample/A405 control) × 100%.

[1] = tested on: NO release in LPS-induced RAW264.7 macrophages; assay: Inhibition of NO production induced by LPS in RAW264.7 cells; assay type: cell-based; conditions: LPS-induced RAW264.7 cells; for IC50: RAW264.7, 24 h, LPS 2 μg/mL, 24 h
Procedure: (§1) RAW264.7 cells were added to a 96-well plate (100 μL/well) at 1.5 × 10^5 cells/mL and incubated for 24 h (37 °C). The control group, model group, and experimental group were set up, with 4 replicates in each group. After incubation, the supernatant was discarded. The cells in the experimental group were treated with different concentrations of compounds, and each group was incubated with lipopolysaccharides (2 μg/mL) for 24 h (37 °C). According to the steps and requirements of the kit instructions, NO, TNF-α, and IL-6 content was detected.

[2] = RAW264.7 cell viability experiment (MTT); conditions: mouse, RAW264.7 cells
Procedure: (§2) RAW264.7 cells were cultured in DMEM containing 1% penicillin/streptomycin and 10% bovine fetal serum in an incubator (5% CO2, 37 °C).
(§3) RAW264.7 cells in the logarithmic growth phase were taken and adjusted to 1.5 × 10^5 cells/mL. The cells were inoculated in 96-well plates and divided into a control group, a blank group, and an experimental group with different concentrations. Each group had 4 duplicate wells and was incubated for 24 h (37 °C). Different concentrations of compounds (100 μL) were added to 96-well plates, and 100 μL of culture medium was added to the blank group and the control group, respectively, and incubated for 24 h. MTT (5 mg/mL, 10 μL) was incubated for 4 h (37 °C) per well. The OD value was measured at 450 nm using a microplate reader to calculate the cell viability.

[3] = ABTS free radical-scavenging assay; conditions: 6 min reaction, 734 nm
Procedure: In order to explore the antioxidant capacity of compounds 1–7, DPPH and ABTS free radical-scavenging methods were used in this experiment (ascorbic acid as a positive control). During the experimental operation, the antioxidant test method proposed by Zhu et al. was used as a reference. Different concentrations of each compound solution were added to 96-well plates, and then 100 μL of DPPH/ABTS solution was added to each well, and the reaction was performed at room temperature for 30 min (DPPH)/6 min (ABTS). After the reaction, the OD values of each well were measured at 517 nm (DPPH)/734 nm (ABTS) using a microplate reader. Finally, according to the measured OD value, the DPPH and ABTS free radical-scavenging rates of each sample were calculated. In order to ensure the accuracy and reliability of the experimental data, all samples were tested three times.Clearance = [1 − (A sample group − A control group)/A blank group] × 100%

IL-6 = assay: ELISA of IL-6 expression in LPS-stimulated RAW264.7 cells; assay type: cell-based; conditions: lowest concentration 12.5 μM
Procedure: as §1

TNF-α = assay: ELISA of TNF-α expression in LPS-stimulated RAW264.7 cells; assay type: cell-based; conditions: 50 μM
Procedure: as §1

RAW264.7 cells = conditions: 50 µM
Procedure: as §2, §3

[4] = Mus musculus, 50 µM, read-out: NO inhibition rate (%)

Chain of α-glucosidase (P53341 whole entry): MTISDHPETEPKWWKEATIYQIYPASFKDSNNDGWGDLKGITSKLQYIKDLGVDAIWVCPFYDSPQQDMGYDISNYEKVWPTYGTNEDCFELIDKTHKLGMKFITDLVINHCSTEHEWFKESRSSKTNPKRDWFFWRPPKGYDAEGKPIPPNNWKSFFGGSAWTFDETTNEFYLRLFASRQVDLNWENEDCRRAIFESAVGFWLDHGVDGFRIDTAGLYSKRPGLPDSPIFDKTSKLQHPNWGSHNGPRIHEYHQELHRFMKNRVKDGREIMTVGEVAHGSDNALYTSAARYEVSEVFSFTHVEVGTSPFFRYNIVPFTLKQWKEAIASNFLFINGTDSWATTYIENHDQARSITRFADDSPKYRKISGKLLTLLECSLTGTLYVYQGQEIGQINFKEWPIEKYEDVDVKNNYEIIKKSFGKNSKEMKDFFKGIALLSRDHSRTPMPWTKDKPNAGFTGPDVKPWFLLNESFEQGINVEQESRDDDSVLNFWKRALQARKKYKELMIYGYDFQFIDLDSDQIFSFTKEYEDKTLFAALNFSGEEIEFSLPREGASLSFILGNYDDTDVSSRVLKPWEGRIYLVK

Compound: 4-(1-Methoxyethenyl)phenol [Compound 7]
α-glucosidase inhibition rate (α-glucosidase): 41.1%

IC50 [3]: 107 ± 1.1 µM
Compound: COC(=O)C1OC(OCC(O)COC(=O)c2cc(OC)c(O)c(OC)c2)C(O)C(O)C1O (stereo not shown) [Compound 1, Roxbubenzoate A]
inhibition at 50 µM [1, 4]: 0%
viability at 24 h, 50 µM [2]: 100%

Compound: O=C1C[C@H](c2ccc(O)c(O)c2)Oc2cc(O)cc(O)c21 [Compound 2, (-)-eriodictyol]
inhibition at 50 µM [1, 4]: 31.3%
inhibition at 200 µM (α-glucosidase): 50.1%
viability at 24 h, 50 µM [2]: 100%
IC50 [3]: 142.6 ± 0.8 µM

IC50 ([1]; Mus musculus): 7.83 ± 2 µM
Compound: O=C1c2c(O)cc(O)cc2O[C@H](c2ccc(O)cc2)[C@H]1O [Compound 3, aromadendrin]
effect on IL-6 expression (ELISA) (IL-6): strong inhibitory effect; also recorded: dose-dependently suppressed
inhibition at 50 µM [1, 4]: 92.5%
effect on TNF-α expression (ELISA) (TNF-α): significant inhibitory activity
viability at 24 h, 50 µM [2]: 100%

inhibition at 200 µM (α-glucosidase): 46.7%
Compound: CC1=C(CC[C@H](C)O[C@H]2O[C@@H](CO)[C@H](O)[C@@H](O)[C@@H]2O)C(C)(C)C=CC1=O [Compound 4, linarionoside A]
inhibition at 50 µM [1, 4]: 6.6%
viability at 24 h, 50 µM [2]: 98.8%

Compound: S=C(S)N1CCCC1 [PDTC, Pyrrolidine dithiocarbamate, reference compound]
IC50 ([1]; Mus musculus): 3.13 ± 0.3 µM
inhibition at 5 µM ([1]; Mus musculus, 5 µM, positive control, read-out: NO inhibition rate (%)): 69.1%
viability at 24 h, 5 µM [2]: 98.5%

IC50 [3]: 128.3 ± 1.2 µM
Compound: (1R)-4-[(3R)-3-hydroxybutyl]-3,5,5-trimethylcyclohex-3-en-1-ol [Compound 6]
NO inhibition rate (%) ([1]; 50 µM): 0.8%
Cell viability (%) (RAW264.7 cells): 98.1%
